System: Bovine cardiac myofibrils
Experiment: In vitro model of dose-dependent myofibril ATPase modulation (AC1.4, pyruvate kinase/lactate dehydrogenase-coupled ATPase assay at pCa25)
Assay type: biochemical
Conditions: concentration at which ATPase activity was 1.4-fold higher than the bottom of the dose curve, mean of a minimum of two independent tests
Outline: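 Compound dilutions were premixed with myofibrils, coupling enzymes, EGTA and CaCl2, then the reaction was started with an equal volume carrying ATP (final 1 mM), NADH and PEP. ATP turnover was followed at 340 nm, and dose responses were fit to a four-parameter equation.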

Row | SMILES | AC1.4 [µM]
1 | CCS(=O)(=O)c1cncc(C(=O)N2[C@@H](C(=O)N[C@@H](c3cc(F)c(Cl)cc3F)C3CC3)C[C@H]3C[C@H]32)c1 [Example 160, (1R,3R,5R)-N-((R)-(4-chloro-2,5-difluorophenyl)(cyclopropyl)methyl)-2-((5-(ethylsulfonyl)-3-pyridinyl)carbonyl)-2-azabicyclo[3.1.0]hexane-3-carboxamide] | 0.274
2 | CS(=O)(=O)c1cccc(C(=O)N2[C@@H](C(=O)N[C@@H](c3ccc(C(F)(F)F)cc3F)C3CCC3)C[C@H]3C[C@H]32)c1 [Example 161, (1R,3R,5R)-N-((R)-cyclobutyl(2-fluoro-4-(trifluoromethyl)phenyl)methyl)-2-(3-(methylsulfonyl)benzoyl)-2-azabicyclo[3.1.0]hexane-3-carboxamide] | 0.2746
3 | CN(Cc1ccc(Cl)cc1)C(=O)C1CCCN1C(=O)c1cccc(S(=O)(=O)N2CC(C#N)C2)c1 (stereo not drawn) [Example 162, N-(4-chlorobenzyl)-1-((3-((3-cyano-1-azetidinyl)sulfonyl)phenyl)carbonyl)-N-methyl-prolinamide] | 0.2767
4 | O=C(N[C@@H](c1cc(F)c(Cl)cc1F)C1CC1)[C@H]1C[C@H]2C[C@H]2N1C(=O)c1cncc(S(=O)(=O)C2CC2)c1 [Example 163, (1R,3R,5R)-N-((R)-(4-chloro-2,5-difluorophenyl)(cyclopropyl)methyl)-2-((5-(cyclopropylsulfonyl)-3-pyridinyl)carbonyl)-2-azabicyclo[3.1.0]hexane-3-carboxamide] | 0.2773
5 | N#CC1CN(S(=O)(=O)N2CCC[C@H](C(=O)N3CCC[C@@H]3C(=O)NCc3ccc(Cl)cc3)C2)C1 [Example 164, N-(4-chlorobenzyl)-1-(((3S)-1-((3-cyano-1-azetidinyl)sulfonyl)-3-piperidinyl)carbonyl)-D-prolinamide] | 0.2785
6 | CC[C@H](NC(=O)[C@H]1CCCN1C(=O)c1cccc(S(=O)(=O)N2CC(C#N)C2)c1)c1cc(F)cc(F)c1 [Example 165, 1-(3-((3-cyano-1-azetidinyl)sulfonyl)benzoyl)-N-((1S)-1-(3,5-difluorophenyl)propyl)-D-prolinamide] | 0.2792
7 | O=C(NCc1ccc(C(F)(F)F)cc1)[C@H]1CCCN1C(=O)[C@H]1CCCN(S(=O)(=O)N2CCC2c2cccc(F)c2)C1 (stereo partly drawn) [Example 166, 1-(((3S)-1-((-2-(3-fluorophenyl)-1-azetidinyl)sulfonyl)-3-piperidinyl)carbonyl)-N-(4-(trifluoromethyl)benzyl)-D-prolinamide] | 0.2807
8 | N#CC1CN(S(=O)(=O)N2CCC(F)=C(C(=O)N3CCC[C@@H]3C(=O)NCc3ccc(C(F)(F)F)cc3)C2)C1 [Example 168, 1-((1-((3-cyano-1-azetidinyl)sulfonyl)-4-fluoro-l,2,5,6-tetrahydro-3-pyridinyl)carbonyl)-N-(4-(trifluoromethyl)benzyl)-D-prolinamide] | 0.2875
9 | N#CC1CN(S(=O)(=O)N2CCC[C@H](C(=O)N3CCC[C@@H]3C(=O)N[C@H](CO)c3ccc(Cl)cc3)C2)C1 [Example 169, N-((1S)-1-(4-chlorophenyl)-2-hydroxyethyl)-1-(((3S)-1-((3-cyano-1-azetidinyl)sulfonyl)-3-piperidinyl)carbonyl)-D-prolinamide] | 0.2892
10 | O=C(N[C@@H](c1cc(F)c(Cl)cc1F)C1COC1)[C@H]1C[C@H]2C[C@H]2N1C(=O)c1ccnc(C(F)(F)F)c1 [Example 171, (1R,3R,5R)-N-((R)-(4-chloro-2,5-difluorophenyl)(3-oxetanyl)methyl)-2-((2-(trifluoromethyl)-4-pyridinyl)carbonyl)-2-azabicyclo[3.1.0]hexane-3-carboxamide] | 0.2934
11 | N#CC1CN(S(=O)(=O)N2C[C@H]3C[C@@H]2[C@H](C(=O)N2CCC[C@@H]2C(=O)NCc2ccc(C(F)(F)F)cc2)C3)C1 [Example 172, 1-(((1R,4R,6R)-2-((3-cyano-1-azetidinyl)sulfonyl)-2-azabicyclo[2.2.1]hept-6-yl)carbonyl)-N-(4-(trifluoromethyl)benzyl)-D-prolinamide] | 0.2959
12 | CS(=O)(=O)c1cccc(C(=O)N2C[C@@H](F)C[C@@H]2C(=O)N[C@@H](c2cc(F)c(C(F)(F)F)cc2F)C2CC2)c1 [Example 173, (4S)-N-((R)-cyclopropyl(2,5-difluoro-4-(trifluoromethyl)phenyl)methyl)-4-fluoro-1-(3-(methylsulfonyl)benzoyl)-D-prolinamide] | 0.3001
13 | N#CC1CN(S(=O)(=O)N2CCN[C@H](C(=O)N3CCC[C@@H]3C(=O)NCc3ccc(Cl)c(F)c3)C2)C1 [Example 174, N-(4-chloro-3-fluorobenzyl)-1-(((2S)-4-((3-cyano-1-azetidinyl)sulfonyl)-2-piperazinyl)carbonyl)-D-prolinamide] | 0.3052
14 | C[C@@H](NC(=O)[C@H]1COCCN1C(=O)[C@H]1CCCN(S(=O)(=O)N2CC(C#N)C2)C1)c1ccc(C(F)(F)F)cc1 [Example 175, (3R)-4-(((3S)-1-((3-cyano-1-azetidinyl)sulfonyl)-3-piperidinyl)carbonyl)-N-((1R)-1-(4-(trifluoromethyl)phenyl)ethyl)-3-morpholinecarboxamide] | 0.3064
15 | COc1cc(Cl)ccc1CNC(=O)[C@H]1CCCN1C(=O)[C@H]1CCCN(S(=O)(=O)N2CC(C#N)C2)C1 [Example 176, N-(4-chloro-2-methoxybenzyl)-1-(((3S)-1-((3-cyano-1-azetidinyl)sulfonyl)-3-piperidinyl)carbonyl)-D-prolinamide] | 0.3085
16 | N#CC1CN(S(=O)(=O)N2CCC[C@H](C(=O)N3C[C@@H]4C[C@@H]4[C@@H]3C(=O)NCc3ccc(C(F)(F)F)cc3)C2)C1 [Example 177, (1S,2R,5R)-3-(((3S)-1-((3-cyano-1-azetidinyl)sulfonyl)-3-piperidinyl)carbonyl)-N-(4-(trifluoromethyl)benzyl)-3-azabicyclo[3.1.0]hexane-2-carboxamide] | 0.3113
17 | CCS(=O)(=O)c1cccc(C(=O)N2[C@@H](C(=O)N[C@@H](c3cc(F)c(C(F)F)cc3F)C3CC3)C[C@H]3C[C@H]32)c1 [Example 178, (1R,3R,5R)-N-((R)-cyclopropyl(4-(difluoromethyl)-2,5-difluorophenyl)methyl)-2-(3-(ethylsulfonyl)benzoyl)-2-azabicyclo[3.1.0]hexane-3-carboxamide] | 0.314
18 | CS(=O)(=O)c1cccc(C(=O)N2CCC[C@@H]2C(=O)N[C@@H](c2ccc(C(F)(F)F)c(F)c2)C2COC2)c1 [Example 179, N-((R)-(3-fluoro-4-(trifluoromethyl)phenyl)(3-oxetanyl)methyl)-1-(3-(methylsulfonyl)benzoyl)-D-prolinamide] | 0.3231
19 | O=C(NCc1ccc(C(F)(F)F)cc1)[C@H]1CCCN1C(=O)[C@H]1CCCN(S(=O)(=O)N2CCC2c2cccc(Br)c2)C1 (stereo partly drawn) [Example 180, 1-(((3S)-1-((-2-(3-bromophenyl)-1-azetidinyl)sulfonyl)-3-piperidinyl)carbonyl)-N-(4-(trifluoromethyl)benzyl)-D-prolinamide] | 0.3256
20 | Cc1ccc(CNC(=O)[C@H]2CCCN2C(=O)[C@H]2CCCN(S(=O)(=O)N3CC(C#N)C3)C2)c(F)c1 [Example 181, 1-(((3S)-1-((3-cyano-1-azetidinyl)sulfonyl)-3-piperidinyl)carbonyl)-N-(2-fluoro-4-methylbenzyl)-D-prolinamide] | 0.3278
21 | N#CC1CN(S(=O)(=O)N2CCCC(F)(C(=O)N3CCC[C@@H]3C(=O)NCc3ccc(C(F)(F)F)cc3)C2)C1 (stereo partly drawn) [Example 183, 1-((-1-((3-cyano-1-azetidinyl)sulfonyl)-3-fluoro-3-piperidinyl)carbonyl)-N-(4-(trifluoromethyl)benzyl)-D-prolinamide] | 0.3361
22 | NC(=O)C1(c2cccc(C(=O)N3[C@@H](C(=O)N[C@@H](c4cc(F)c(Cl)cc4F)C4COC4)C[C@H]4C[C@H]43)c2)CC1 [Example 184, (1R,3R,5R)-2-(3-(1-carbamoylcyclopropyl)benzoyl)-N-((R)-(4-chloro-2,5-difluorophenyl)(3-oxetanyl)methyl)-2-azabicyclo[3.1.0]hexane-3-carboxamide] | 0.3365
23 | CC(C)[C@@H](NC(=O)[C@H]1CCCN1C(=O)c1cccc(S(=O)(=O)N(C)C)c1)c1ccc(C(F)(F)F)cc1F [Example 185, 1-(3-(dimethylsulfamoyl)benzoyl)-N-((1R)-1-(2-fluoro-4-(trifluoromethyl)phenyl)-2-methylpropyl)-D-prolinamide] | 0.3371
24 | CC(C)(C)Nc1ccc(S(C)(=O)=O)cc1C(=O)N1CCC[C@@H]1C(=O)N[C@@H](c1ccc(C(F)(F)F)cc1F)C1CC1 [Example 186, N-((R)-cyclopropyl(2-fluoro-4-(trifluoromethyl)phenyl)methyl)-1-(2-((2-methyl-2-propanyl)amino)-5-(methylsulfonyl)benzoyl)-D-prolinamide] | 0.3372
25 | N#CC1CN(S(=O)(=O)N2CCO[C@H](C(=O)N3CCC[C@@H]3C(=O)NCc3ccc(Cl)cc3F)C2)C1 [Example 187, N-(4-chloro-2-fluorobenzyl)-1-(((2S)-4-((3-cyano-1-azetidinyl)sulfonyl)-2-morpholinyl)carbonyl)-D-prolinamide] | 0.3409
26 | N#CC1CN(S(=O)(=O)c2cccc(C(=O)N3CCC[C@@H]3C(=O)N[C@@H](CO)c3ccc(C(F)(F)F)cc3)c2)C1 [Example 188, 1-(3-((3-cyano-1-azetidinyl)sulfonyl)benzoyl)-N-((1R)-2-hydroxy-1-(4-(trifluoromethyl)phenyl)ethyl)-D-prolinamide] | 0.3496
27 | N#CC1CN(S(=O)(=O)N2CC3CC2[C@@H](C(=O)N2CCC[C@@H]2C(=O)NCc2ccc(C(F)(F)F)cc2F)C3)C1 (stereo partly drawn) [Example 189, 1-((2-((3-cyano-1-azetidinyl)sulfonyl)-2-azabicyclo[2.2.1]hept-6-yl)carbonyl)-N-(2-fluoro-4-(trifluoromethyl)benzyl)-D-prolinamide] | 0.3524
